Results: PMC9322052, “Synthesis and Biological Activity Screening of Newly Synthesized Trimethoxyphenyl-Based Analogues as Potential Anticancer Agents” (Molecules, 2022)

Experiments:
HepG2 cells = test: Mitochondrial membrane potential by flow cytometry; format: cell-based, human; details: HepG2, 1.38 μM (IC50), 48 h
Protocol: Mitochondrial Membrane Potential (MMP) plays a vital role in the initiation of the apoptosis process. Loss of MMP is characteristic of an early stage of apoptosis.
MMP was measured by flow cytometry analysis in HepG2 cells according to the manufacturer’s directions. See Section 3.3.5 in Supplementary Material.
Figure 5 Compound 9 promotes MMP dissipation in HepG2 cells. (A) HepG2 cells were treated with 1.38 μM of compound 9 for 48 h. MMP was quantized using image-based flow cytometry. (B) The quantification of MMP in HepG2 cells after treatment with compound 9 at its IC50 concentration (μM). […]
(§1) To measure the cytotoxic activity of the synthesized derivatives 2a-11 in hepatocel-lular carcinoma (HepG2) cell line (ATCC Cat No. HB-8065) as well as normal human liver cell line HL-7702 (ATCC Cat. No. 77402), cell viability assay was assessed using MTT assay method. […] The color inten-sity of the formazan product, which represents the growth condition of the cells, is quan-tified by using an ELISA plate reader (EXL 800, USA) at 570 nm absorbance. […]
Compounds 9, 10 and 11 were evaluated for their tubulin inhibitory activity levels according to the manufacturer’s instructions using # abcam Human Beta-tubulin simplestep […]

Bax = test: ELISA quantification of Bax level; format: cell-based, human; details: HepG2, 1.38 μM (IC50), 48 h
Protocol: (§2) Compound 9 was screened for its ability to activate p53 and Bax as well as downregulate the level of Bcl-2 to investigate the mechanistic apoptotic pathway that catalyzed the apoptosis process. HepG2 cells were treated with compound 9 at a concentration equal to its IC50 in μM, and the level of p53, Bax, and Bcl-2 was quantized using ELISA analysis. The results obtained for compound 9 show the increase in the level of p53 and Bax by 8.91- and 4.50-fold, respectively, compared with the negative control samples.
(§3) Apoptotic markers (p53, Bax and Bcl-2) were measured in HepG2 cells using ELISA analysis according to the manufacturer’s directions. See Section 3.3.6 in Supplementary Material.
(§4) Figure 6 (A) The quantification of p53. (B) The quantification of Bax. (C) The quantification of Bcl-2. HepG2 cells were treated with 1.38 μM of compound 9 for 48 h and apoptotic markers were determined by ELISA assay.
(§5) 3.3.1. Cytotoxic activity evaluation
as §1

Bcl-2 = test: ELISA quantification of Bcl-2 level; format: cell-based, human; details: HepG2, 1.38 μM (IC50), 48 h
Protocol: as §2, §3, §4, §5, §1

COc1ccc(C2=N/C(=C\c3cc(OC)c(OC)c(OC)c3)C(=O)NN2c2ccccc2)cc1OC [Compound 9, (Z)-3-(3,4-Dimethoxyphenyl)-2-Phenyl-5-(3,4,5-Trimethoxybenzylidene)-1,2-Dihydro-1,2,4-Triazin-6(5H)-one]
decrease in level of MMP compared with negative HepG2 cells (HepG2 cells): 3.12 fold | increase in level of Bax compared with negative control (Bax): 4.50 fold | decrease in level of Bcl-2 compared with negative control (Bcl-2): 5.58 fold | melting point: 248 to 250 °C
